The text below walks through data of patent US11951131B2, “Anti-SLAMF7 chimeric antigen receptors” (The United States of America, as represented by the …, priority 2018, dated 2024).

Assay [1] has as its system SLAMF7-K562. The assay is described as follows: IFN-gamma ELISA, CAR T cells cultured overnight with SLAMF7-K562 target cells. The class given is cell-based, human. The text has this: (§1) MM.1S is a SLAMF7^+ multiple myeloma cell line that was obtained from American Type Culture Collection (ATCC). A549 is a BCMA-negative lung cancer cell line (ATCC). TC71 is a BCMA-negative sarcoma cell line. CCRF-CEM, 293T, and A549 are SLAMF7-negative cell lines (ATCC). COL0207, HepG2, U251, Panc10.05, and TC71 are […] that were kind gifts from Dr. Steven Rosenberg, National Cancer Institute. SLAMF7-K562 are K562 cells (ATCC) which were transduced with the gene for full-length SLAMF7. SLAMF7-RPMI are RPMI8226 cells (ATCC) which were transduced with the gene for full-length SLAMF7. NGFR-K562 are K562 cells which were transduced with the gene for low-affinity nerve growth factor (Kochenderfer et al., J. Immunother., 32(7): 689-702 (2009)). All of the human samples mentioned were obtained from patients enrolled in IRB-approved clinical trials at the National Cancer Institute.
(§2) One-hundred thousand SLAMF7^+ or SLAMF7-negative target cells were combined with 100,000 CAR-transduced T cells in duplicate wells of a 96 well round bottom plate in 200 µL of AIM V™ medium (Invitrogen) plus 5% human serum. The plates were incubated at 37° C. for 18-20 hours. Following the incubation, ELISAs (enzyme-linked immunosorbent assays) for IFNγ were performed by using standard methods.
(§3) The T cells columns indicate whether T cells were transduced with Luc90-CD828Z, Luc63-CD828Z, or were untransduced. The % CAR^+ in Table B-1 was determined by staining the T cells with Protein L. Except for the % CAR^+ column, all values are pg/mL of IFN-gamma. T cells that were either untransduced or transduced with one of the indicated CARs were cultured with target cells overnight and a standard IFN-gamma ELISA was performed on the culture supernatant.
(§4) All values are pg/mL of IFN-gamma. T cells that were either untransduced or transduced with one of the indicated CARs were cultured with target cells overnight, and a standard IFN-gamma ELISA was performed on the culture supernatant.
(In general: ELISA stands for enzyme-linked immunosorbent assay.)

In assay [2] the test system is NGFR-K562. The assay is described as follows: IFN-gamma ELISA, CAR T cells with NGFR-K562 target cells. Format: cell-based, human.
Description: as §1, §2, §3, §4
The values in the cells are pg/mL of IFN-gamma. T cells that were either untransduced or transduced with one of the indicated CARs were cultured with target cells overnight, and a standard IFN-gamma ELISA was performed on the culture supernatant. The concentrations of 0, 50, or 200 ng/mL at the top of each column indicates the concentration of soluble SLAMF7 added to all T cell plus target cell overnight cultures in that column. The soluble SLAMF7 was added at the beginning of the overnight culture.

Assay [3] concerns CCRF-CEM. The assay is described as follows: IFN-gamma ELISA, CAR T cells with CCRF-CEM target cells. Format: cell-based, human.
Description: as §1, §2, §4

Assay [4] has as its system IC9-expressing T cells. In words: 6-hour and 48-hour post-rimiducid T cell death analysis. The class given is cell-based, human. Conditions: for elimination of CAR T cells when AP1903 was added to the T-cell cultures: per construct, in words. On the procedure: On day 8 of culture, 1 million T cells from cultures that were either untransduced or transduced with one of the anti-SLAMF7 CARs cells were suspended at 1×10^6 T cells/mL in AIM V™ media (Invitrogen) plus 300 IU of interleukin-2. One million cells were added to each of 4 wells of a 12-well plate. A different concentration of AP1903 (MedChem Express, Princeton, N.J.) from was added to each well. AP1903 is also referred to as rimiducid. The concentrations of AP1903 evaluated were: 0, 1, 10, or 100 ng/mL.
Six hours and 48 hours after these cultures were set up, the cells were counted, washed, and stained with Protein L as described above. Next, the cells were washed twice with PBS, re-suspended in Annexin V binding buffer (BD Biosciences), and incubated with allophycocyanin-conjugated Annexin V (BD Biosciences) and 7AAD (BD Biosciences) for 15 minutes (mins) at room temp. The cells were immediately analyzed by flow cytometry.

Assay [5] concerns MM.1S human SLAMF7^+ multiple myeloma solid tumors. In words: MM.1S solid tumor model in NSG mice, anti-tumor efficacy. Format: in vivo. Conditions: for anti-tumor activity: 2 million CAR^+ T cells per mouse, 5 mice per group (FIG. 17). How it is done:
First, MM.1S human SLAMF7^+ multiple myeloma cell line tumors were established in immunodeficient mice. In this model, the MM.1S cells formed a solid cutaneous mass. Measurable tumors were allowed to develop over 7 days, and then the mice were treated with a single intravenous infusion of MSGV1-IC9-Luc90-CD828Z-transduced human T cells. NSG mice (NOD.Cg-Prkdc^scid Il2rg^tm1Wjl/SzJ) from The Jackson Laboratory, Bar Harbor, Me., were used. Mice received intradermal injections of 4×10^6 MM.1S cells. The cells were suspended in a 1:1 mixture of MATRIGEL™ gelatinous protein mixture (BD Biosciences) and PBS (Phosphate-buffered saline) for injection. Tumors were allowed to grow for 7 days, and then each mouse received a single intravenous infusion of human T cells that were transduced with one of 3 CARs: IC9-Luc90-CD828Z (suicide gene+anti-SLAMF7 CAR), Luc90-CD828Z (anti-SLAMF7 CAR alone), or a negative-control anti-CD19 CAR Hu19-CD828Z. A 4th group was left untreated. All groups included 5 mice. After CAR T-cell infusion, the tumors were measured with calipers every 3 days. The longest length and the length perpendicular to the longest length and the tumor thickness were multiplied together to obtain the tumor volume in mm^3. When the longest length reached 15 mm, mice were sacrificed. Animal studies were approved by the National Cancer Institute Animal Care and Use Committee.
FIGS. 16A-16B show a dose-titration of IC9-Luc90-CD828Z-expressing T cells. In this experiment, immunocompromised NSG mice were injected intradermally with 4×10^6 MM.1S cells to form a solid mass. Mice were then treated with a single infusion of 0.5×10^6, 2×10^6, or 8×10^6, IC9-Luc90-CD828Z-expressing T cells. […] The tumor volume curves end when the first mouse of a group was sacrificed.
MM.'S tumors were established in NSG mice as described in Example 9. FIGS. 17A-17B show results in which mice bearing MM.1S tumors were treated with T cells expressing one of 3 different CARs: IC9-Luc90-CD828Z (suicide gene+anti-SLAMF7 CAR), Luc90-CD828Z (anti-SLAMF7 CAR alone), or a negative-control anti-CD19 CAR Hu19-CD828Z. A 4th group was left untreated in both experiments. All groups included 5 mice. The CARP T cell dose was 2 million CARP T cells per mouse. There were 5 mice in all groups.

Setting [6] is: dose of 2 million or more T cells per mouse.

For the substance “IC9-Luc90-CD828Z: CAR plus suicide gene construct (SEQ ID NO: 31): IC9 suicide gene 5′ to the CAR, T2A, Luc90-CD828Z”, the “IFN-gamma, SLAMF7-K562” value in assay [1] (Table E, overnight culture) was found to be 2225 pg/mL. Besides, the “IFN-gamma, NGFR-K562” value in assay [2] (Table E) was 30 pg/mL. Also, the “IFN-gamma, CCRF-CEM” value in assay [3] (Table E) worked out at 33 pg/mL. Besides, the “elimination of CAR^+ T cells, comparison of the two constructs” value in assay [4] (IC9-Luc90-CD828Z compared with Luc90-CD828Z-IC9) was “slightly superior”. Further, in assay [4], the “elimination of CAR T cells when AP1903 was added to the T-cell cultures” value is listed as “efficiently eliminated”. In assay [5] (0.5×10^6 to 8×10^6 T cells), the “dose dependence of activity against established tumors” value is given as “dose-dependent activity”. The anti-tumor activity result in assay [5] is given as “powerful anti-tumor activity”. The survival result in assay [5] (setting [6]) is recorded as “mice survive long-term”. Moreover, in assay [5] (setting [6]), the tumor eradication result is listed as “tumors can be eradicated”. Also, the effect on tumors entry is “only slightly slowed tumor growth relative to untreated mice but did not eliminate any tumors” in assay [5] (single infusion of 0.5×10^6 CAR^+ T cells (FIG. 16)), “eliminated all tumors” in assay [5] (single infusion of 2×10^6 CAR^+ T cells (FIG. 16)) and “eliminated all tumors” in assay [5] (single infusion of 8×10^6 CAR^+ T cells (FIG. 16)).

In the case of “Luc90-CD828Z: anti-SLAMF7 CAR (SEQ ID NO: 27): murine Luc90 scFv, human CD8a hinge and TM, CD28 and CD3ζ domains; tested as transduced T cells”, the “IFN-gamma, target cells SLAMF7-K562” value in assay [1] (Table B-1, overnight culture) was 16579 pg/mL; in assay [1] (Table B-2, overnight culture) it was 20055 pg/mL; in assay [1] (Table C), 15759 pg/mL. The “IFN-gamma, target cells NGFR-K562” value in assay [2] (Table B-2, SLAMF7-negative) is given as 45 pg/mL; in assay [2] (Table C), 26 pg/mL. In assay [2] (Table D, soluble SLAMF7 added 0 ng/ml), the “IFN-gamma, target cells NGFR K562 0 ng/ml” value is 267 pg/mL. Moreover, the “IFN-gamma, target cells NGFR K562 50 ng/ml” value in assay [2] (Table D, soluble SLAMF7 added 50 ng/ml) was determined as 223 pg/mL. In addition, in assay [2] (Table D, soluble SLAMF7 added 200 ng/ml), the “IFN-gamma, target cells NGFR K562 200 ng/ml” value was determined as 224 pg/mL. Further, the “IFN-gamma, target cells CCRF-CEM” value in assay [3] (Table C) was 16 pg/mL. The “elimination of CAR T cells when AP1903 was added to the T-cell cultures” value in assay [4] is “efficiently eliminated”. Moreover, the anti-tumor activity entry in assay [5] was “powerful anti-tumor activity”.
